Where two headings read alike, the source gives them in different places. Marks after values point to notes of the source that are not given here.
Tests used:
[1] = Antimicrobial residue concentration and depletion in muscle of treated pigs within the withdrawal period (LC-MS/MS or HPLC-FLD); format: in vivo; details: for concentration at 2 day of withdrawal period / half-life / concentration at 3 day of withdrawal period / concentration at 4 day of withdrawal period / concentration at 7 day of withdrawal period / concentration at 15 day of withdrawal period: intramuscular; for concentration at 2 day of withdrawal period: withdrawal period Day 2, pig; for Maximum concentration value in Muscle / Minimum concentration value in Muscle: over the sample bank of treated piglets; for half-life: both sexes, T1/2=Ln(2)/λz, read-out: T1/2 half-life of elimination (MUSCLE) (converted); for concentration at 3 day of withdrawal period: withdrawal period Day 3, pig; for Time until levels reached the detection limit (DL) in muscle: DL 10 µg/kg; for Slope (MUSCLE): regression of concentration over the withdrawal period, deep intramuscular treatment; for concentration at 4 day of withdrawal period: withdrawal period Day 4, pig; for concentration at 7 day of withdrawal period: withdrawal period Day 7, pig; for concentration at 15 day of withdrawal period: withdrawal period Day 15, pig
From the text: To obtain samples containing antimicrobial compounds administered in vivo, 93 piglets (62 female, 31 male) with an average weight of 43.00 ± 12.79 kg were provided at treatment onset. These piglets were untreated animals that remained on the premises of the Faculty of Veterinary Sciences at the University of Zaragoza (Zaragoza, Spain) 40 days before administration of the compounds. Both during the acclimatization and withdrawal periods, animals were fed ad libitum with a special mixed feed that was free of antibiotics ([…], Spain), and water was provided from a separated, controlled water circuit. Piglets were raised in separate pens depending on the antibiotic administrated. After administration, animals were slaughtered at preset intervals within the withdrawal period in order to obtain samples containing different antimicrobial concentrations above and below the MRLs for muscle. Figure S1 indicates the slaughter days and the withdrawal periods set by the manufacturer for each antimicrobial compound administered. Between one and three piglets were slaughtered on the same day post-administration. The day of slaughter was calculated from the first day after the last antimicrobial treatment dose. […] Apart from samples containing antimicrobial compounds administered in vivo, and as a part of the sample bank, 15 of the 93 piglets were slaughtered after the acclimatization period and before treatment onset. Animals were stunned and slaughtered following the guidelines established by European Council Regulation (EC) No. 1099/2009 [39] regarding the protection of animals at the time of slaughter or killing. A penetrative captive bolt gun was used to stun the pigs, positioning it firmly against the skin, in the middle of the forehead, 2 cm above the line of the eyes, aiming towards the tail. This was followed by complete exsanguination carried out by incision in the jugular furrow at the base of the neck to sever all the major blood vessels arising from the heart. The samples obtained from them were used as blank samples for analysis. […] Samples were immediately frozen at -20 °C until analysis. For HPLC-FLD analyses, matrix solid phase dispersion (MSPD) was used. A total of 1.00 ± 0.01 g of tissue was weighed. Internal quality control samples were spiked at this point. […] It was introduced into a 25 mL reservoir and compacted. Clean-up was made with 8 mL of hexane, and quinolones were eluted with 15 mL acetonitrile/methanol (1:1) acidified with acetic acid 1%. […] The extraction procedure for LC-MS/MS determination was based on Chico et al.. […] All samples were spiked with IS at this point, and calibrants and internal quality control samples were prepared by spiking the corresponding amount of standard working solution. A total of 200 μL of 0.1 M EDTA was added, followed by 10 mL of 70% methanol, and samples were vortexed for 30 s, swung for 15 min, and finally centrifuged at 4500 rcf for 10 min at a temperature below 10 °C (Heraeus Multifuge X3 FR, Heraeus, Hanau, Germany). Then, 500 μL of supernatant was collected and diluted by adding 1500 μL of water. Extracts were filtered through 0.2 μm pore filters directly into LC-MS/MS vials. […] Mobile phase consisted of eluent A: phosphoric acid with trimethylamine buffer (pH = 3), and eluent B: acetonitrile, in isocratic mode (21:79) with a flow rate of 1 mL/min. Injected volume was 50 μL. […] The same mobile phase and gradient conditions as in SCIEX instruments were applied. Injected volume was 10 μL. Two ESI+ MRM transitions were monitored for each compound (Table S5). […] Results were represented as the mean ± standard deviation using the PRISM program (GraphPad Software, Inc., San Diego, USA). The rates of elimination (λz) of antibiotics from muscle and blood were determined by regression analysis. […]

[2] = Antimicrobial residue concentration and depletion in blood (serum) of treated pigs within the withdrawal period (LC-MS/MS); format: in vivo; details: for Maximum concentration value in Blood / Minimum concentration value in Blood: over the sample bank of treated piglets; for half-life: both sexes, intramuscular, T1/2=Ln(2)/λz, read-out: T1/2 half-life of elimination (BLOOD) (converted); for half-life / Slope (BLOOD): pig blood serum; for Slope (BLOOD): regression of concentration over the withdrawal period, deep intramuscular treatment; for Time until levels reached the detection limit (DL) in blood: DL 10 µg/kg
From the text: To obtain samples containing antimicrobial compounds administered in vivo, 93 piglets (62 female, 31 male) with an average weight of 43.00 ± 12.79 kg were provided at treatment onset. These piglets were untreated animals that remained on the premises of the Faculty of Veterinary Sciences at the University of Zaragoza (Zaragoza, Spain) 40 days before administration of the compounds. Both during the acclimatization and withdrawal periods, animals were fed ad libitum with a special mixed feed that was free of antibiotics ([…], Spain), and water was provided from a separated, controlled water circuit. Piglets were raised in separate pens depending on the antibiotic administrated. After administration, animals were slaughtered at preset intervals within the withdrawal period in order to obtain samples containing different antimicrobial concentrations above and below the MRLs for muscle. Figure S1 indicates the slaughter days and the withdrawal periods set by the manufacturer for each antimicrobial compound administered. Between one and three piglets were slaughtered on the same day post-administration. The day of slaughter was calculated from the first day after the last antimicrobial treatment dose. […] Apart from samples containing antimicrobial compounds administered in vivo, and as a part of the sample bank, 15 of the 93 piglets were slaughtered after the acclimatization period and before treatment onset. Animals were stunned and slaughtered following the guidelines established by European Council Regulation (EC) No. 1099/2009 [39] regarding the protection of animals at the time of slaughter or killing. A penetrative captive bolt gun was used to stun the pigs, positioning it firmly against the skin, in the middle of the forehead, 2 cm above the line of the eyes, aiming towards the tail. This was followed by complete exsanguination carried out by incision in the jugular furrow at the base of the neck to sever all the major blood vessels arising from the heart. The samples obtained from them were used as blank samples for analysis. Blood was collected not only from slaughtered animals, but also from living animals on each day of slaughter. […] For quinolones in blood serum samples, a LC-MS/MS method was set up using a SCIEX Exion LC coupled to TripleQuad 6500+ triple quadrupole detector equipped with an Acquity Ultra Performance Liquid Chromatography Ethylene Bridged Hybrid (UPLC BEH) C18 (1.7 μm, 2.1 × 100 mm) column. Mobile phase consisted of eluent A: 0.1% formic acid in water, and eluent B: 0.1% formic acid in acetonitrile at a flow rate of 0.4 mL/min. […] Injected volume was 5 μL. Analytes were detected using positive electrospray ionization (ESI+) in multiple reaction monitoring (MRM) mode, and two transitions were monitored for each compound of interest (Table S4). […] The same mobile phase and gradient conditions as in SCIEX instruments were applied. […] Two ESI+ MRM transitions were monitored for each compound (Table S5). […] Results were represented as the mean ± standard deviation using the PRISM program (GraphPad Software, Inc., San Diego, USA). The rates of elimination (λz) of antibiotics from muscle and blood were determined by regression analysis. The corresponding half-lives of elimination were calculated according to the following equation: Half-life of elimination.

[3] = cited from earlier work; for Suppression Period (withdrawal period set by the manufacturer): commercial product, deep intramuscular, ref manufacturer; for MRLs: muscle, ref Regulation (EEC) No. 2377/90
[4] = parameters: method as in earlier work; details: cited from earlier work
[5] = forequarter muscle, read-out: Concentration in Forequarters
[6] = hindquarter muscle, read-out: Concentration in Hindquarters
[7] = loin muscle, read-out: Concentration in Loins

SMILES: CC1(C)S[C@@H]2[C@H](NC(=O)[C@H](N)c3ccc(O)cc3)C(=O)N2[C@H]1C(=O)O [Amoxicillin, amoxicillin]
- concentration at 2 day of withdrawal period [1, 5]: 20.7 ± 1.15 ng/g
- concentration at 2 day of withdrawal period [1, 6]: 25.3 ± 6.43 ng/g
- concentration at 2 day of withdrawal period [1, 7]: 149 ± 8.54 ng/g
- Maximum concentration value in Muscle [1]: 307.00 ± 10.39 µg/kg
- Minimum concentration value in Muscle [1]: 13.33 ± 2.52 µg/kg
- Concentration in loins compared with forequarters and hindquarters ([1]; pig muscle groups, Table S1): over seven times higher
- Time at which muscle amounts were close to the MRL ([1]; pig muscle, MRL 50 µg/kg): first day of the withdrawal period
- Maximum concentration value in Blood [2]: 73.00 ± 6.24 µg/kg
- Minimum concentration value in Blood [2]: 19.00 ± 1.00 µg/kg
- Time at which blood amounts were close to the MRL ([2]; pig blood, MRL 50 µg/kg): first day of the withdrawal period
- Suppression Period (withdrawal period set by the manufacturer) [3]: 25 days
- MRLs [3]: 50 µg/kg

SMILES: CCN1CCN(c2cc3c(cc2F)c(=O)c(C(=O)O)cn3C2CC2)CC1 [Enrofloxacin, enrofloxacin]
- half-life ([1]; pig muscle): 22.1 h
- concentration at 2 day of withdrawal period [1, 5]: 374 ± 4.73 ng/g
- concentration at 3 day of withdrawal period [1, 5]: 990.5 ± 3.54 ng/g
- concentration at 2 day of withdrawal period [1, 6]: 387 ± 8.5 ng/g
- concentration at 3 day of withdrawal period [1, 6]: 1075 ± 1.41 ng/g
- concentration at 2 day of withdrawal period [1, 7]: 383 ± 2 ng/g
- concentration at 3 day of withdrawal period [1, 7]: 1060 ± 2.12 ng/g
- Maximum concentration value in Muscle [1]: 1858.00 ± 156.37 µg/kg
- Minimum concentration value in Muscle [1]: 18.00 ± 2.65 µg/kg
- Time until levels reached the detection limit (DL) in muscle ([1]; pig muscle): 7 days after inoculation
- Slope (MUSCLE) ([1]; pig muscle): −0.3289 ± 0.01929 ^a
- half-life [2]: 45.6 h
- Maximum concentration value in Blood [2]: 448.50 ± 2.12 µg/kg
- Minimum concentration value in Blood [2]: 21.67 ± 1.15 µg/kg
- Slope (BLOOD) [2]: −0.2213 ± 0.01639 ^b
- Time until levels reached the detection limit (DL) in blood ([2]; pig blood): 8 days after inoculation

SMILES: CN(C)[C@@H]1C(O)=C(C(N)=O)C(=O)[C@@]2(O)C(O)=C3C(=O)c4c(O)cccc4[C@@](C)(O)[C@H]3[C@H](O)[C@@H]12 [Oxytetracycline, oxytetracycline]
- half-life ([1]; pig muscle): 82.3 h
- concentration at 4 day of withdrawal period [1, 5]: 971 ± 53.3 ng/g
- concentration at 7 day of withdrawal period [1, 5]: 411 ± 27.5 ng/g
- concentration at 15 day of withdrawal period [1, 5]: 99.7 ± 6.51 ng/g
- concentration at 4 day of withdrawal period [1, 6]: 1010 ± 55.5 ng/g
- concentration at 7 day of withdrawal period [1, 6]: 383 ± 45.9 ng/g
- concentration at 15 day of withdrawal period [1, 6]: 100 ± 16 ng/g
- concentration at 4 day of withdrawal period [1, 7]: 905 ± 118 ng/g
- concentration at 7 day of withdrawal period [1, 7]: 383 ± 12.9 ng/g
- concentration at 15 day of withdrawal period [1, 7]: 125 ± 15.7 ng/g
- Maximum concentration value in Muscle [1]: 1005.33 ± 55.47 µg/kg
- Minimum concentration value in Muscle [1]: 31.33 ± 3.21 µg/kg
- Time until levels reached the detection limit (DL) in muscle ([1]; pig muscle): 26 days after inoculation
- Slope (MUSCLE) ([1]; pig muscle): −0.08784 ± 0.005403 ^a
- half-life [2]: 86.2 h
- Maximum concentration value in Blood [2]: 615.00 ± 204.47 µg/kg
- Minimum concentration value in Blood [2]: 24.00 ± 1.73 µg/kg
- Slope (BLOOD) [2]: −0.08879 ± 0.007069 ^a
- Time until levels reached the detection limit (DL) in blood ([2]; pig blood): 25 days after inoculation
- Share of the dose eliminated in the feces [4]: 40%
- Share of the dose eliminated in urine via glomerular filtration [4]: 60%
- Suppression Period (withdrawal period set by the manufacturer) [3]: 28 days
- MRLs [3]: 100 µg/kg

— paper PMC7235904, “Is Blood a Good Indicator for Detecting Antimicrobials in Meat? Evidence for the Development of In Vivo Surveillance Methods” (Antibiotics, 2020)
